Laboratory results: US20110009351A1, “SCREENING ASSAY TO IDENTIFY CORRECTORS OF PROTEIN TRAFFICKING DEFECTS” (Traffick Therepeutics Inc., priority 2007, published 2011)
Counter-ions that a name gives are not always drawn. Like-named read-outs stand apart in the source and are kept apart here.

What was measured:
Format in all cases: cell-based
F508del CFTR = molecular target: T1, F508del CFTR (Homo sapiens, UniProt P13569, DEL508-508); assay: YFP fluorescence quenching functional assay (iodide influx), HEK293 cells with F508del CFTR and halide sensitive YFP; conditions: 10 μM, 24 h; for remaining activity at 10 µM: HEK293, read-out: % YFP quench; for remaining activity at 10 µM / % YFP quench: nc = 100% pc = 69.2
T1 construct: expressed in transfected cells; host or cells: HEK293 Griptite cells stably expressing F508del CFTR, transiently transfected with halide-sensitive eYFP
Protocol: In addition to the MDS compounds, the 1120 Prestwick Library compounds were screened. (See FIGS. 7 to 12.) Of the compounds, one qualified as a “strong” hit, 3 as “medium” hits and 57 as “weak” hits. The Z score for the assay was 0.62. The top 50 hits were further tested in a counter screen in which the halide sensitive fluorescent compound (YFP) was expressed inside cells (Table 2). After incubation with the test compounds the ability of the cells to uptake iodide was measure by decreasing YFP fluorescence. In these cells this can only occur if functional CFTR is present at the cell surface (FIG. 7). The hits were also tested for the appearance of the Band C form of CFTR. […] The functionality of the compounds was further studied by the use of Iodide efflux assays for each compound in both BHK and the more physiologically relevant CFBE cells. […] FIG. 10 is a table of results for the 15 hit compounds which summarizes many experiments. […] The results for the best 15 compounds from the Prestwick Library, or “Prestwick 15”, are shown FIGS. 8, 9 and 10.
Strongly adhesive Human […] Kidney cells stably expressing both the human macrophage scavenger receptor (HEK293 Griptite, Invitrogen) and F508del CFTR were plated in 96-well plates and transiently transfected with pcDNA3 plasmid encoding a halide sensitive variant of eYFP. After 24-48 h later cells were exposed to 10 μM test compound in triplicate and incubated for an additional 24 h. Cells were stimulated for 20 minutes with a in a buffer containing 25 μM forskolin, 45 μM IBMX and 50 μM genistein final concentration. The high content screening assay was performed using a Cellomics platform. Iodide was added robotically to a final concentration of 50 mM and the resulting decrease in fluorescence was measured. Images were taken at time 0 and stored for subsequent use when calculating a mask so that only those cells that express YFP at time 0 are measured. The quenching was detected in 15 images taken over the course of an experiment lasting 40 seconds. Each test compound was compared to the following two controls: a negative control without drugs to assess photobleaching that may occur when the same field of view is repeatedly imaged, and a positive control with cells treated with a known potentiator. Results were generated from 150-300 cells per well.

ΔF508-CFTR [1] = molecular target: T2, ΔF508-CFTR (Homo sapiens, UniProt P13569, DEL508-508); design: which was then ligated into full length pNUT-CFTR linearized using Hpa1 and Pml1; expressed in transfected cells; conditions: for hit in screen (class letter): BHK cells
Protocol: BHK cells expressing 3HA-tagged ΔF508-CFTR between passages 5-8 were seeded in 96-well plates (Corning half area, black-sided, clear bottom) at 15,000 cells per well and incubated with culture medium for 24 h at 37° C. Each well was then treated with a different test compound (80 compounds per plate) for 24 h at 20 μM final concentration. The remaining 16 wells on each plate were used for control conditions. […] Cells were fixed in a 4% paraformaldehyde solution, washed with PBS, and blocked with PBS containing 5% fetal bovine serum (FBS) for 1 hat 4° C.
Blocking solution was replaced with 15 μl of primary antibody solution containing 1% FBS and mouse monoclonal anti-HA antibody (1:150 dilution, Sigma) in PBS. The plates were sealed and left at 4° C. overnight. After three washes with 100 μl PBS, cells were incubated for 1 h with 15 μl of secondary antibody solution containing 1% FBS and anti-mouse IgG conjugated with FITC (1:100 dilution, Sigma) in PBS. Cells were again washed three times with 100 μl of PBS and analyzed in a plate reader (Analyst™ HT96.384, Biosystems; 488 nm excitation/510 nm emission). […] The mean fluorescence of four untreated wells was used as the background signal when calculating deviations of the 80 compound-treated wells. Hits were then cherry-picked into reservoir plates and re-tested in duplicate using the same assay.
BHK cells expressing ΔF508-CFTR were incubated with test compounds (20 μM) for 24 hours at 37° C. in a 96 well format. Plasma membrane expression of ΔF508-CFTR was then assayed by immunofluorescence using a primary antibody directed against the inserted 3HA tag and a secondary antibody conjugated with a fluorophore (FITC). […] The positive compounds were selected and retested in duplicate to obtain an N of 3. At the re-screening stage, the intrinsic fluorescence of each potential hit was also measured and the fluorescent ones were not considered further.
Screening was performed using BHK cells that stably express F508-CFTR bearing three tandem haemagglutinin-epitope tags (3HA) and linker sequences in the fourth extracellular loop after amino acid 901 (Howard et al., 1995; Carlile et al., 2007; Robert et al., 2008). […] Screening was performed using the Prestwick Chemical Library of 1120 high-purity compounds.

ΔF508-CFTR [2] = molecular target: T2, ΔF508-CFTR; assay: three stage ELISA of CFTR surface expression, BHK cells expressing ΔF508-CFTR; design: which was then ligated into full length pNUT-CFTR linearized using Hpa1 and Pml1; expressed in transfected cells; conditions: 10% glycerol or 1 mM sodium 4-phenylbutyrate, 24 hours
Protocol: Cells were screened for CFTR surface expression using a three stage ELISA system (Pierce Inc., USA). Briefly, BHK cells expressing 3HA-tagged ΔF508-CFTR were seeded in 96-well plates (Corning, USA) at 30,000 cells per well and incubated for 24 h at 37° C. Each well was treated with a test compound for 24 h, then cells were fixed in 4% paraformaldehyde solution and washed with PBS containing 0.1% bovine serum albumin and 0.05% tween-20. Cells were blocked for 1 h in solution containing 3% normal horse serum in PBS at room temperature. […] After washing four more times, the cells were exposed to 3,3′,5,5′ tetramethylbenzidine (Pierce Inc., USA) for 15 min, sulphuric acid (2M) was added, and absorbance was measured at 450 nm (Power-Wavex Bio-tek Instruments).
To determine if cell surface expression of CFTR could be quantified in a high-throughput screen using this assay, cells expressing tagged versions of wt or ΔF508-CFTR were seeded in 96-well plates, treated with 10% glycerol and monitored as light absorbance using an enzyme-linked assay system. As expected, untreated ΔF508-CFTR cells had low absorbance since they expressed little CFTR on their cell surface under control conditions (FIG. 3A).

[3] = Prestwick library, initial corrector assay
[4] = Prestwick library, initial corrector assay, standard deviations above untreated controls

T1 sequence (P13569 with tags, fused parts or gaps DEL508-508): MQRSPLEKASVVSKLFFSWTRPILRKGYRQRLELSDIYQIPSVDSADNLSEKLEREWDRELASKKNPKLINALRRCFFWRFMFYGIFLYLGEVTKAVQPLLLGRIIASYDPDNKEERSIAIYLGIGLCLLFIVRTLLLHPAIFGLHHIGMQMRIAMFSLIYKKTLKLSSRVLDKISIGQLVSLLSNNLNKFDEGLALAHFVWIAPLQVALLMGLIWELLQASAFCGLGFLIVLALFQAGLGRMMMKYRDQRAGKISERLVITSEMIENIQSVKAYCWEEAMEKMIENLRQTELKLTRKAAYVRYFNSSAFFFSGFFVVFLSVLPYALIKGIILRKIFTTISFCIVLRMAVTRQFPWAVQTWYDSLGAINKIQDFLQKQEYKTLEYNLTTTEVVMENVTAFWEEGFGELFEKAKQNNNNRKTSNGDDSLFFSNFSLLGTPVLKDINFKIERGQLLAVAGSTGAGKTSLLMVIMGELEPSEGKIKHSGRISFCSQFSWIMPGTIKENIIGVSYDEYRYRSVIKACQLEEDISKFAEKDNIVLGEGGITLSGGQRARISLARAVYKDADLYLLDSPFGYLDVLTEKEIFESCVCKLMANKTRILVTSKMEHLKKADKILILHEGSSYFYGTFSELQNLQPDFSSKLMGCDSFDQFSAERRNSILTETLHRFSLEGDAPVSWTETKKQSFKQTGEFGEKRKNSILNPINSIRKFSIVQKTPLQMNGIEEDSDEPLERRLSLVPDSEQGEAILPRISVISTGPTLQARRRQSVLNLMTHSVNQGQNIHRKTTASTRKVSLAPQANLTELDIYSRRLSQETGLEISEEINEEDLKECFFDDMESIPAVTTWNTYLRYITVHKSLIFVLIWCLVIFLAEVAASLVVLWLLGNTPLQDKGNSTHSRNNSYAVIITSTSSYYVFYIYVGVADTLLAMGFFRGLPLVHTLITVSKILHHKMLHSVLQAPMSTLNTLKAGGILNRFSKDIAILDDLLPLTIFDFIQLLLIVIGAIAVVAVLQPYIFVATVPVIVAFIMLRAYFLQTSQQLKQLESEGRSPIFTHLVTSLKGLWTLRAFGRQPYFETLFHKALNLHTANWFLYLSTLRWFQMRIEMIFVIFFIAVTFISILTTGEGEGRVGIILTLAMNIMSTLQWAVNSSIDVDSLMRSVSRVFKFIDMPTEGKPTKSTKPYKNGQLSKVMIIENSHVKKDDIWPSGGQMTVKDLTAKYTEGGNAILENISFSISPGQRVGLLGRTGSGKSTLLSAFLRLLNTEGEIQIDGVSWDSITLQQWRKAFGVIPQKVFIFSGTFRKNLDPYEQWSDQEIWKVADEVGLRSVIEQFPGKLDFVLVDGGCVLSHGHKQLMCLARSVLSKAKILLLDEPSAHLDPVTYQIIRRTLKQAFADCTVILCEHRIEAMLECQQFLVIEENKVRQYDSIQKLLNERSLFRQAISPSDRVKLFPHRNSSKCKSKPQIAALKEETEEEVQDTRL
T2 sequence (P13569 with tags, fused parts or gaps DEL508-508): as above

Row | Compound | remaining activity at 10 µM (F508del CFTR) [%] | hit in screen (class letter) (ΔF508-CFTR [1]; [3]) | hit in screen (score) (ΔF508-CFTR [1]; [4]) | hit in screen (score) (ΔF508-CFTR [1]) | % YFP quench (F508del CFTR) [%] | increase in signal, suitability as positive control for the corrector assay screen (ΔF508-CFTR [1]; kifunesine 100 μM, Sodium 4 Phenylbutyrate 1 mM, curcumin 40 μM, 24 hours) | plasma membrane signal (absorbance), words (ΔF508-CFTR [2]) | functional correction in YFP quenching assay (F508del CFTR)
1 | CC[C@@H](CO)NC(=O)[C@@H]1C=C2c3cccc4[nH]cc(c34)C[C@H]2N(C)C1 [Methylergometrine maleate] | 94 | W (Medium and weak hits were defined as compounds giving a cell fluorescence signal that was between 2 and 3 or 1 and 2 standard deviations, respectively, above untreated control wells) | 1.1 | – | – | – | – | –
2 | CC(C)(C(=O)c1cccnc1)c1cccnc1 [Metyrapone] | 98 | W (Medium and weak hits were defined as compounds giving a cell fluorescence signal that was between 2 and 3 or 1 and 2 standard deviations, respectively, above untreated control wells) | 1.4 | – | – | – | – | –
3 | CCOc1ccc2ccccc2c1C(=O)N[C@@H]1C(=O)N2[C@@H]1SC(C)(C)[C@@H]2C(=O)O [Nafcillin sodium salt monohydrate] | 97 | – | – | W 1.2 | – | – | – | –
4 | CCN(CC)CC#CCOC(=O)C(O)(c1ccccc1)C1CCCCC1 (stereo not shown) [Oxybutynin chloride] | 83 | W (Medium and weak hits were defined as compounds giving a cell fluorescence signal that was between 2 and 3 or 1 and 2 standard deviations, respectively, above untreated control wells) | 1.2 | – | – | – | – | –
5 | CCCCOc1ccc(OCCCN2CCOCC2)cc1 [Pramoxine hydrochloride] | 89 | W (Medium and weak hits were defined as compounds giving a cell fluorescence signal that was between 2 and 3 or 1 and 2 standard deviations, respectively, above untreated control wells) | 1.2 | – | – | – | – | –
6 | Cl.OC(CCN1CCCC1)(c1ccccc1)C1CCCCC1 (stereo not shown) [Procycildine hydrochloride] | – | W (Medium and weak hits were defined as compounds giving a cell fluorescence signal that was between 2 and 3 or 1 and 2 standard deviations, respectively, above untreated control wells) | 1.1 | – | 92 | – | – | –
7 | CC[C@H]1OC(=O)[C@H](C)[C@@H](O[C@H]2C[C@@](C)(OC)[C@@H](O)[C@H](C)O2)[C@H](C)[C@@H](O[C@@H]2O[C@H](C)C[C@H](N(C)C)[C@H]2O)[C@](C)(O)C[C@@H](C)/C(=N\OCOCCOC)[C@H](C)[C@@H](O)[C@]1(C)O [Roxithromycin] | 100 | W (Medium and weak hits were defined as compounds giving a cell fluorescence signal that was between 2 and 3 or 1 and 2 standard deviations, respectively, above untreated control wells) | 1.2 | – | – | – | – | –
8 | CC(C)Cc1ccc([C@H](C)C(=O)O)cc1 [S-(+)-Ibuorofen] | – | – | 1.1 | – | 91 | – | – | –
9 | CC(C)(C)NCC(O)c1ccc(O)c(CO)c1 (stereo not shown) [Salbutamol] | 97 | W (Medium and weak hits were defined as compounds giving a cell fluorescence signal that was between 2 and 3 or 1 and 2 standard deviations, respectively, above untreated control wells) | 1.0 | – | – | – | – | –
10 | Cc1scc2c1N(C(=O)CN1CCN(C)CC1)c1ccccc1NC2=O [Telenzepine dihydrochloride] | 85 | W (Medium and weak hits were defined as compounds giving a cell fluorescence signal that was between 2 and 3 or 1 and 2 standard deviations, respectively, above untreated control wells) | 1.3 | – | – | – | – | –
11 | O=C1CCC(N2C(=O)c3ccccc3C2=O)C(=O)N1 (stereo not shown) [Thalidomide] | 92 | M (Medium and weak hits were defined as compounds giving a cell fluorescence signal that was between 2 and 3 or 1 and 2 standard deviations, respectively, above untreated control wells) | 2.0 | – | – | – | – | –
12 | c1ccc2[nH]c(-c3cscn3)nc2c1 [Tiabendazole] | 907 | W (Medium and weak hits were defined as compounds giving a cell fluorescence signal that was between 2 and 3 or 1 and 2 standard deviations, respectively, above untreated control wells) | 1.0 | – | – | – | – | –
13 | O=C([O-])CCCc1ccccc1.[Na+] [sodium 4-phenylbutyrate] | – | – | – | – | – | not sufficient to act as a positive control | increased the plasma membrane signal | –
14 | Cyanocobalamin | – | W (Medium and weak hits were defined as compounds giving a cell fluorescence signal that was between 2 and 3 or 1 and 2 standard deviations, respectively, above untreated control wells) | 1.1 | – | 100 | – | – | not functional
15 | Cytisine (−) | – | M (Medium and weak hits were defined as compounds giving a cell fluorescence signal that was between 2 and 3 or 1 and 2 standard deviations, respectively, above untreated control wells) | 2.0 | – | 97 | – | – | –
16 | Oubinidine | – | W (Medium and weak hits were defined as compounds giving a cell fluorescence signal that was between 2 and 3 or 1 and 2 standard deviations, respectively, above untreated control wells) | 1.2 | – | 104 | – | – | –
17 | Terbutaline hemisulfate | – | W (Medium and weak hits were defined as compounds giving a cell fluorescence signal that was between 2 and 3 or 1 and 2 standard deviations, respectively, above untreated control wells) | 1.3 | – | 100 | – | – | –
